Starred links: 1 amine or outer side, 2 acyl side, 3 side chain; linkers in the order of their positions; H or OH if unused. Non-standard residues stand in square brackets, D forms with d. Groups on a side chain read outwards from the residue. No end group written: not given here. *: point of attachment. C18 diacid = O=C(O)CCCCCCCCCCCCCCCCC(=O)*; γGlu = O=C(O)[C@H](CCC(=O)[*:2])N[*:1]; αMe4Pal = C[C@](N)(Cc1ccncc1)C(=O)O; αMeY = C[C@](N)(Cc1ccc(O)cc1)C(=O)O; 4Pal = N[C@@H](Cc1ccncc1)C(=O)O; αMeL = CC(C)C[C@](C)(N)C(=O)O; AEEA = NCCOCCOCC(=O)O; Aib = CC(C)(N)C(=O)O
How the values were obtained:
Assay type in all cases: cell-based
[1] = target: T1, hGLP-1R (Homo sapiens, UniProt P43220); test: Functional cAMP activity in the presence of 1% HSA; details: read-out: cAMP Rel EC50, hGLP-1R
T1 sequence (P43220 24-463): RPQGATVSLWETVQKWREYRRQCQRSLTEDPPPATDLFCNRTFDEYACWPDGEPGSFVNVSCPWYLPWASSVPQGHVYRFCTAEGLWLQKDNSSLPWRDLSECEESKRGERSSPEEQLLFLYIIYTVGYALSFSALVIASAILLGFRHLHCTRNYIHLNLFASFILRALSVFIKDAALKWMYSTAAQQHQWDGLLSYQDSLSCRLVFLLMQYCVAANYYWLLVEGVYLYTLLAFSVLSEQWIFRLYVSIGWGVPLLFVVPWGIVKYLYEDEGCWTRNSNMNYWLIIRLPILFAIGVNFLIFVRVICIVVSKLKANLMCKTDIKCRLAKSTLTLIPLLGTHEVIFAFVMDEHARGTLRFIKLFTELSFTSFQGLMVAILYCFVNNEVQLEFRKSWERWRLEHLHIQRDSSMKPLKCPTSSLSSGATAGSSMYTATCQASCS

[2] = target: T1, hGLP-1R; test: Functional cAMP activation in the presence of 0.1% casein (no HSA); details: in the presence of 0.1% casein (no HSA); geometric mean; read-out: Relative cAMP EC50, hGLP-1R;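 on Relative cAMP EC50, hGLP-1R: intracellular cAMP rise after 30 min at 37 °C read by HTRF, normalized between buffer only (0%) and maximal control ligand (100%), four-parameter variable-slope fit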;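 on Relative cAMP EC50, hGcgR: intracellular cAMP rise after 30 min at 37 °C, read by HTRF against a cAMP standard curve, scaled from buffer only (0%) to maximal control ligand response (100%)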
[3] = target: hGcgR (Homo sapiens, UniProt P47871); test: as above; details: in the presence of 0.1% casein (no HSA); geometric mean; read-out: Relative cAMP EC50, hGcgR;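 further: intracellular cAMP rise after 30 min at 37 °C, read by HTRF against a cAMP standard curve, scaled from buffer only (0%) to maximal control ligand response (100%)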
Chain of hGcgR (P47871 26-477): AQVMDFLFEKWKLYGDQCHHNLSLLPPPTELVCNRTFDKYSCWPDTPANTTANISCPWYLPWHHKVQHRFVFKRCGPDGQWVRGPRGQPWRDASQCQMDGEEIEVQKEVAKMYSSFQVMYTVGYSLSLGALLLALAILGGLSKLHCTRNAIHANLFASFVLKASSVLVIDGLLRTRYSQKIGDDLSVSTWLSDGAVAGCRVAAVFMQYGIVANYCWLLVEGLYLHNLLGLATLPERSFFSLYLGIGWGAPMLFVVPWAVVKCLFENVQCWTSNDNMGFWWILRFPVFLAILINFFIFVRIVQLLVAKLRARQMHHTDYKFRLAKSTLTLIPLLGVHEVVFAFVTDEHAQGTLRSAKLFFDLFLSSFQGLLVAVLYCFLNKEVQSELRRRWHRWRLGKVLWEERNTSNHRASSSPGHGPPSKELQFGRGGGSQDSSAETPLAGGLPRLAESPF

[4] = target: human GcgR (Homo sapiens, UniProt P47871); test: Functional cAMP activity in the presence of 1% HSA; details: read-out: cAMP Rel EC50, hGcgR
Chain of human GcgR (P47871 26-477): as above

[5] = target: T2, hGIPR (Homo sapiens, UniProt P48546); test: Functional cAMP activation in the presence of 0.1% casein (no HSA); details: in the presence of 0.1% casein (no HSA); geometric mean; read-out: Relative cAMP EC50, hGIPR;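 further: intracellular cAMP rise after 30 min at 37 °C read by HTRF against a standard curve, scaled between buffer alone (0%) and top control ligand concentration (100%), four-parameter fit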
T2 sequence (P48546 22-466): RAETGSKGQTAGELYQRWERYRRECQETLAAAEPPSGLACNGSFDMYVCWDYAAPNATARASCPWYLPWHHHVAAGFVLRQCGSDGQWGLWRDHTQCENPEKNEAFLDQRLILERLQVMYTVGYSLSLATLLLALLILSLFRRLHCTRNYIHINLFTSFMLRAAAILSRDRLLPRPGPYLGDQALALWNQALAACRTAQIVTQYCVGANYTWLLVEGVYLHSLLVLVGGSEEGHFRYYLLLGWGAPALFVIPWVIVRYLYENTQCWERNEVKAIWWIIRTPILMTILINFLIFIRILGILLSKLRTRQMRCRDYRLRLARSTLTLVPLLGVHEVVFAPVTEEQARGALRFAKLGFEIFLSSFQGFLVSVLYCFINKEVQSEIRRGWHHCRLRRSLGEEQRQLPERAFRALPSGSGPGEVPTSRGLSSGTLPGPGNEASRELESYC

[6] = target: T2, hGIPR; test: Functional cAMP activity in the presence of 1% HSA; details: read-out: cAMP Rel EC50, hGIPR

Row | Substance | EC50 [1] [nM] | EC50 [2] [nM] | EC50 [3] [nM] | EC50 [4] [nM] | EC50 [5] [nM] | EC50 [6] [nM]
1 | H-Y[Aib]QGTFTSD[4Pal]SQ[αMeL]LDKK([AEEA-γGlu-C18 diacid])AQ[αMe4Pal]AFIEYLIE[Aib]GPSSGAPPPEGS-NH2 [Example 851] | 428 | 3.06 | 3.38 | 558 | 0.215 | 24.4
2 | H-Y[Aib]QGTFTSD[4Pal]SQ[αMeL]LDKK([AEEA-γGlu-C18 diacid])AQ[αMe4Pal]AFIEYLIE[Aib]GPSSGAPPPSGE-NH2 [Example 881] | 321 | 2.87 | 4.09 | 507 | 0.211 | 30.1
3 | H-Y[Aib]QGTFTSD[4Pal]SQ[αMeL]LDKK([AEEA-γGlu-C18 diacid])AQ[αMe4Pal]AFIEYLIE[Aib]GPSSGAPPPSGSE-NH2 [Example 886] | 271 | 2.7 | 4.13 | 540 | 0.149 | 26.5
4 | H-Y[Aib]QGTFTSD[4Pal]SQ[αMeL]LDKK([AEEA-γGlu-C18 diacid])AQ[αMe4Pal]AFIEYLIE[Aib]GPSSGAPPPSGSEE-NH2 [Example 897] | 557 | 3.29 | 3.62 | 658 | 0.157 | 25.9
5 | H-Y[Aib]QGTFTSD[4Pal]SQ[αMeL]LDKK([AEEA-γGlu-C18 diacid])AQ[αMe4Pal]AFIEYLIE[Aib]GPSSGAPPPSGSEEE-NH2 [Example 898] | 584 | 4.62 | 3.39 | 770 | 0.287 | 25.5
6 | H-Y[Aib]QGTFTSD[4Pal]SQ[αMeL]LDKK([AEEA-γGlu-C18 diacid])AQ[αMe4Pal]AFIEYLIE[Aib]GPSSGAPPPSGSGE [Example 889] | 371 | 5.06 | 4.09 | 688 | 0.106 | 21.6
7 | H-Y[Aib]QGTFTSD[4Pal]SQ[αMeL]LDKK([AEEA-γGlu-C18 diacid])AQ[αMe4Pal]AFIEYLIE[Aib]GPSSGAPPPSGSGE-NH2 [Example 888] | 238 | 5.02 | 30.1 | 567 | 0.168 | 30.8
8 | H-Y[Aib]QGTFTSD[4Pal]SQ[αMeL]LDKK([AEEA-γGlu-C18 diacid])AQ[αMe4Pal]AFIEYLIE[Aib]GPSSGAPPPSGT-NH2 [Example 834] | 208 | 2.64 | 3.36 | 533 | 0.094 | 15.7
9 | H-Y[Aib]QGTFTSD[4Pal]SQ[αMeL]LDKK([AEEA-γGlu-C18 diacid])AQ[αMe4Pal]AFIEYLIE[Aib]GPSSGAPPPSG[4Pal]-NH2 [Example 835] | 274 | 2.84 | 3.83 | 558 | 0.382 | 16.8
10 | H-Y[Aib]QGTFTSD[4Pal]SQ[αMeL]LDKK([AEEA-γGlu-C18 diacid])AQ[αMe4Pal]AFIEYLIE[Aib]GPSSGAPPPSSS-NH2 [Example 848] | 313 | 2.29 | 3.22 | 615 | 0.148 | 20.2
11 | H-Y[Aib]QGTFTSD[4Pal]SQ[αMeL]LDKK([AEEA-γGlu-C18 diacid])AQ[αMe4Pal]AFIEYLLAGGPSSGAPPPSGSEE-NH2 [Example 1037] | 625 | 5.95 | 3.31 | 291 | 0.221 | 13.7
12 | H-Y[Aib]QGTFTSD[4Pal]SQ[αMeL]LDKK([AEEA-γGlu-C18 diacid])AQ[αMe4Pal]AFIE[αMe4Pal]LIEGGPSSGAPPPSGS-NH2 [Example 948] | 304 | 2.67 | 2.89 | 537 | 0.17 | 22.9
13 | H-Y[Aib]QGTFTSD[4Pal]SQ[αMeL]LDKK([AEEA-γGlu-C18 diacid])AQ[αMe4Pal]AFIE[αMe4Pal]LIEGGPSSGAPPPSGSEE-NH2 [Example 954] | 357 | 4.79 | 3.66 | 450 | 0.268 | 35.3
14 | H-Y[Aib]QGTFTSD[4Pal]SQ[αMeL]LDKK([AEEA-γGlu-C18 diacid])AQ[αMe4Pal]AFIE[αMe4Pal]LIE[Aib]GPSSGAPPPSGTE-NH2 [Example 1116] | 198 | 4.63 | 8.2 | 364 | 0.134 | 10.8
15 | H-Y[Aib]QGTFTSD[4Pal]SQ[αMeL]LDKK([AEEA-γGlu-C18 diacid])AQ[αMe4Pal]AFIE[αMe4Pal]LIE[Aib]GPSSGAPPPSGTGE-NH2 [Example 1117] | 237 | 3.51 | 4.93 | 355 | 0.124 | 8.31
16 | H-Y[Aib]QGTFTSD[4Pal]SQ[αMeL]LDKK([AEEA-γGlu-C18 diacid])AQ[αMe4Pal]AFIE[αMeY]LIEGGPSSGAPPPSGS-NH2 [Example 844] | 151 | 0.61 | 2.83 | 583 | 0.27 | 43.3
17 | H-Y[Aib]QGTFTSD[4Pal]SQ[αMeL]LDKK([AEEA-γGlu-C18 diacid])AQ[αMe4Pal]QFIE[αMeY]LIEGGPSSGAPPPSGS-NH2 [Example 855] | 207 | 0.908 | 2.67 | 1030 | 0.271 | 46.1
18 | H-Y[Aib]QGTFTSD[4Pal]SQ[αMeL]LDKK([AEEA-γGlu-γGlu-C18 diacid])AQ[αMe4Pal]AFIEWLIEGGPSSGAPPPSGS-NH2 [Example 871] | 230 | 2.92 | 12.6 | 2060 | 0.2 | 35.4
19 | H-Y[Aib]QGTFTSD[4Pal]SQ[αMeL]LDKK([AEEA-γGlu-γGlu-C18 diacid])AQ[αMe4Pal]AFIEYLIAGGPSSGEPPPSGS-NH2 [Example 947] | 150 | 1.7 | 6.99 | 727 | 0.289 | 16.6
20 | H-Y[Aib]QGTFTSD[4Pal]SQ[αMeL]LDKK([AEEA-γGlu-γGlu-C18 diacid])AQ[αMe4Pal]AFIEYLIE[Aib]GPSSGAPPPSGS-NH2 [Example 860] | 414 | 3.95 | 11 | 565 | 0.202 | 19.2
21 | H-Y[Aib]QGTFTSD[4Pal]SQ[αMeL]LDKK([Glu-Glu-γGlu-C18 diacid])AQ[αMe4Pal]AFIEYLIAGGPSSGAPPPSGE-NH2 [Example 1087] | 439 | 2.63 | 15.4 | 2460 | 0.207 | 23.3
22 | H-Y[Aib]QGTFTSD[4Pal]SQ[αMeL]LDKK([Glu-Glu-γGlu-C18 diacid])AQ[αMe4Pal]AFIEYLIAGGPSSGAPPPSGEEE-NH2 [Example 1090] | 619 | 5.44 | 15.6 | 2010 | 0.272 | 27.3
23 | H-Y[Aib]QGTFTSD[4Pal]SQ[αMeL]LDKK([Glu-γGlu-C18 diacid])AQ[αMe4Pal]AFIEYLIAGGPSSGAPPPSGEEE-NH2 [Example 1089] | 449 | 2.96 | 14 | 2580 | 0.213 | 34.6
24 | H-Y[Aib]QGTFTSD[4Pal]SQ[αMeL]LDKK([Glu-γGlu-C18 diacid])AQ[αMe4Pal]AFIEYLIAGGPSSGAPPPSGSEE-NH2 [Example 1030] | 385 | 1.72 | 9.42 | 1830 | 0.122 | 21
25 | H-Y[Aib]QGTFTSD[4Pal]SQ[αMeL]LDKK([Glu-γGlu-C18 diacid])AQ[αMe4Pal]AFIEYLIE[Aib]GPSSGAPPPSGS-NH2 [Example 894] | 711 | 2.01 | 6.09 | 2330 | 0.0752 | 30.9
26 | H-Y[Aib]QGTFTSD[4Pal]SQ[αMeL]LDKK([Glu-γGlu-Glu-C18 diacid])AQ[αMe4Pal]AFIEYLIE[Aib]GPSSGAPPPSGS-NH2 [Example 896] | 535 | 4.64 | 10.6 | 1110 | 0.12 | 16.8
27 | H-Y[Aib]QGTFTSD[4Pal]SQ[αMeL]LDKK([dE-dE-γGlu-C18 diacid])AQ[αMe4Pal]AFIEYLIE[Aib]GPSSGAPPPSGS-NH2 [Example 921] | 261 | 3.73 | 10.4 | 2130 | 0.228 | 12.4
